One test concerns SUP-M2 cells. Description: Cell proliferation assay, SUP-M2 cells (CCK-8). The conditions noted are these: 72 h exposure, Cell Counting Kit-8 assay. It is filed as cell-based. On the procedure:
(§1) NCI-H3122 or SUP-M2 Cells were plated into 96-well plates (3000-8000/well) in complete medium. After incubation overnight, cells were exposed to various concentrations of compound for further 72 h. Cell proliferation was evaluated by SRB assay (for NCI-H3122 cell) or Cell Counting Kit-8 assay (CCK-8, DOJINDO Molecular Technologies, Inc.) (for SUP-M2 cell). ICso values were calculated by concentration-response curve fitting using a SoftMax pro-based four-parameter method. Each IC50 value was expressed as mean±SD from three separate experiments.

The test system of another test is NCI-H3122 cells. Description: Cell proliferation assay, NCI-H3122 cells (SRB). In kind it is cell-based. The conditions noted are these: Homo sapiens, 72 h exposure. On the procedure: as §1

This note sets out measurements from patent US20160145244A1, “CERTAIN PROTEIN KINASE INHIBITORS” (FOCHON PHARMA, INC., priority 2014, published 2016).

Broadly, the IC50 is the midpoint of a concentration-inhibition curve.

Each structure is given as a SMILES string.

As for `Cc1cc(Nc2ncnc(Nc3ccccc3S(=O)(=O)C(C)C)n2)c2c(c1C1CCNCC1)C[C@@H](C)O2` [Example 1, (R)—N^2-(2,5-dimethyl-4-(piperidin-4-yl)-2,3-dihydrobenzofuran-7-yl)-N^4-(2-(isopropylsulfonyl)phenyl)-1,3,5-triazine-2,4-diamine], the figures for the IC50 in the test on SUP-M2 cells and with NCI-H3122 cells were 99.3 nM and 52.6 nM, respectively.
For `Cc1cc(Nc2ncnc(Nc3ccccc3S(=O)(=O)C(C)C)n2)c2c(c1C1CCN(C)CC1)C[C@@H](C)O2` [Example 2, (R)—N^2-(2,5-dimethyl-4-(1-methylpiperidin-4-yl)-2,3-dihydrobenzofuran-7-yl)-N^4-(2-(isopropyl-sulfonyl)phenyl)-1,3,5-triazine-2,4-diamine], in that order: 54.4 nM and 20.8 nM.
In the case of `CC(=O)N1CCC(c2c(C)cc(Nc3ncnc(Nc4ccccc4S(=O)(=O)C(C)C)n3)c3c2C[C@@H](C)O3)CC1` [Example 3, (R)-1-(4-(7-((4-((2-(isopropylsulfonyl)phenyl)amino)-1,3,5-triazin-2-yl)amino)-2,5-dimethyl-2,3-dihydrobenzofuran-4-yl)piperidin-1-yl)ethan-1-one], the results for the IC50 in the test on SUP-M2 cells and with NCI-H3122 cells were 50.4 nM and 14.4 nM, respectively.
Turning to `Cc1cc(Nc2ncnc(Nc3ccccc3S(=O)(=O)C(C)C)n2)c2c(c1C1CCN(S(C)(=O)=O)CC1)C[C@@H](C)O2` [Example 4, (R)—N^2-(2,5-dimethyl-4-(1-(methylsulfonyl)piperidin-4-yl)-2,3-dihydrobenzofuran-7-yl)-N^4-(2-(isopropylsulfonyl)phenyl)-1,3,5-triazine-2,4-diamine], the IC50 in the test on SUP-M2 cells is 111 to 333 nM.
Consider `Cc1cc(Nc2ncnc(Nc3ccccc3S(=O)(=O)C(C)C)n2)c2c(c1C1CCN(CCO)CC1)C[C@@H](C)O2` [Example 5, (R)-2-(4-(7-((4-((2-(isopropylsulfonyl)phenyl)amino)-1,3,5-triazin-2-yl)amino)-2,5-dimethyl-2,3-dihydrobenzofuran-4-yl)piperidin-1-yl)ethan-1-ol], for which the IC50 is 70 nM in the test with SUP-M2 cells and 57.7 nM in the test with NCI-H3122 cells.
Molecule `CCOC(=O)CN1CCC(c2c(C)cc(Nc3ncnc(Nc4ccccc4S(=O)(=O)C(C)C)n3)c3c2C[C@@H](C)O3)CC1` [Example 6, Ethyl (R)-2-(4-(7-((4-((2-(isopropylsulfonyl)phenyl)amino)-1,3,5-triazin-2-yl)amino)-2,5-dimethyl-2,3-dihydrobenzofuran-4-yl)piperidin-1-yl)acetate] showed a 50% inhibitory concentration (IC50) with SUP-M2 cells of 111 to 333 nM.
Still for that read-out and setting: with `Cc1cc(Nc2ncnc(Nc3ccccc3S(=O)(=O)C(C)C)n2)c2c(c1C1CCN(CC(=O)N(C)C)CC1)C[C@@H](C)O2` [Example 7, (R)-2-(4-(7-((4-((2-(isopropylsulfonyl)phenyl)amino)-1,3,5-triazin-2-yl)amino)-2,5-dimethyl-2,3-dihydrobenzofuran-4-yl)piperidin-1-yl)-N,N-dimethylacetamide] the figure was 111 to 333 nM; with `Cc1cc(Nc2ncnc(Nc3ccccc3S(=O)(=O)C(C)C)n2)c2c(c1C1CCN(CCS(C)(=O)=O)CC1)C[C@@H](C)O2` [Example 8, (R)—N^2-(2,5-dimethyl-4-(1-(2-(methylsulfonyl)ethyl)piperidin-4-yl)-2,3-dihydrobenzofuran-7-yl)-N^4-(2-(isopropylsulfonyl)phenyl)-1,3,5-triazine-2,4-diamine], 111 to 333 nM.
Regarding `Cc1cc(Nc2ncnc(Nc3ccccc3S(=O)(=O)C(C)C)n2)c2c(c1C1CCN(C(=O)CO)CC1)C[C@@H](C)O2` [Example 9, (R)-2-hydroxy-1-(4-(7-((4-((2-(isopropylsulfonyl)phenyl)amino)-1,3,5-triazin-2-yl)amino)-2,5-dimethyl-2,3-dihydrobenzofuran-4-yl)piperidin-1-yl)ethan-1-one], the figures for the IC50 in the test with SUP-M2 cells and in the test with NCI-H3122 cells were 33.7 nM and 15.9 nM, respectively.
For `Cc1cc(Nc2ncnc(Nc3ccccc3S(=O)(=O)C(C)C)n2)c2c(c1C1CCN(C(=O)CN)CC1)C[C@@H](C)O2` [Example 10, (R)-2-amino-1-(4-(7-((4-((2-(isopropylsulfonyl)phenyl)amino)-1,3,5-triazin-2-yl)amino)-2,5-dimethyl-2,3-dihydrobenzofuran-4-yl)piperidin-1-yl)ethan-1-one], in that order: 79.6 nM and 134 nM.
Take `Cc1cc(Nc2ncnc(Nc3ccccc3S(=O)(=O)C(C)C)n2)c2c(c1C1CCN(C(=O)[C@H](C)N)CC1)C[C@@H](C)O2` [Example 11, (S)-2-amino-1-(4-((R)-7-((4-((2-(isopropylsulfonyl)phenyl)amino)-1,3,5-triazin-2-yl)amino)-2,5-dimethyl-2,3-dihydrobenzofuran-4-yl)piperidin-1-yl)propan-1-one]: the IC50 was found to be 67.1 nM with SUP-M2 cells and 25.7 nM in the test with NCI-H3122 cells.
